Results on 66 compounds are retold here after the Kinase Knowledgebase extract (Sharma et al. 2016).

Several values for one entry are separate records, joined by “and”; a condition that tells them apart may be missing. Equal entries are not always repeated.

Chain of PIK3CG (P48736 whole entry, looked up): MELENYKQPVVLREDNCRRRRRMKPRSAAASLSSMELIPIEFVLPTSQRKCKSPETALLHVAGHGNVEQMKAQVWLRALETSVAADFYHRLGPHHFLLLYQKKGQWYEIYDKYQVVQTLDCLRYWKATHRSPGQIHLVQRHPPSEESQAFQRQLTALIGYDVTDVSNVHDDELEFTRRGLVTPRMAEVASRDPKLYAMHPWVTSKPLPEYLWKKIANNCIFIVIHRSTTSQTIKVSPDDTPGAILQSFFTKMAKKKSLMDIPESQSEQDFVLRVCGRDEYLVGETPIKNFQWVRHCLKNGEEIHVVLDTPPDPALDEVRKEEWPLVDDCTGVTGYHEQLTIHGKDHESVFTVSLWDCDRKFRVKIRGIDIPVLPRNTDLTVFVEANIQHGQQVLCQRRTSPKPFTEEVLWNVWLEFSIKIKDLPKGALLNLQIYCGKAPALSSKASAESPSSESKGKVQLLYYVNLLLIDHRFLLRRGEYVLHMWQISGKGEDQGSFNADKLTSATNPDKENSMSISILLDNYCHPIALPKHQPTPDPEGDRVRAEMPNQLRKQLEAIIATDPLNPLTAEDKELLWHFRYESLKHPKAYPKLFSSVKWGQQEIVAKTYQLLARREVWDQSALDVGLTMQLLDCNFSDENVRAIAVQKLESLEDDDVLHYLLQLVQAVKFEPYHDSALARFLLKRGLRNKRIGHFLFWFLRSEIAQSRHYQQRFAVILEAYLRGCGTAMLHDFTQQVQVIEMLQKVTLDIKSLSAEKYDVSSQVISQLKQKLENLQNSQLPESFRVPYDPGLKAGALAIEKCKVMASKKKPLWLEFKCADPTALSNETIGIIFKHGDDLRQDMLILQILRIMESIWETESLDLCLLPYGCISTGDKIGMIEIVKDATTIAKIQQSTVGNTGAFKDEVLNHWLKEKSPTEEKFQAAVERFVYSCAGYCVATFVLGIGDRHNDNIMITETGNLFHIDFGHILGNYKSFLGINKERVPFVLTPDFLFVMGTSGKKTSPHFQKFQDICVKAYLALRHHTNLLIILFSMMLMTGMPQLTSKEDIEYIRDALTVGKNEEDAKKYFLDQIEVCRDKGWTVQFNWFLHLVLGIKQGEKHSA

The target in the first experiment is PIK3CB;PIK3CA (UniProt P42338). Nature of the experiment: PI3-Kinase alpha/beta Inhibition.
Consider `O=c1cc(N2CCOCC2)nc2c(OCc3ccccc3)cccn12`, for which the IC50 (in general, the concentration that inhibits the measured activity by half) is 500 nM. Same read-out and setting: to `Cc1cc(Nc2ccncc2)c2nc(N3CCOCC3)cc(=O)n2c1` belongs 1000 nM. The same measure, in the same setting: the result for `O=c1cc(N2CCOCC2)nc2c(OCc3cccnc3)cccn12` reads 10000 nM. Still for that read-out and setting: the result for `Cc1cc(Nc2ccccc2OCCN(C)C)c2nc(N3CCOCC3)cc(=O)n2c1` reads 2000 nM. In the case of `Cc1cc(NCc2ccccc2)c2nc(N3CCOCC3)cc(=O)n2c1`, the 50% inhibitory concentration (IC50) came to 50 nM. Same read-out and setting: the result for `COC(=O)c1cccc(Oc2cccc3c(=O)cc(N4CCOCC4)[nH]c23)c1` reads 500 nM. On the same count and under the same terms, the result for `O=c1cc(N2CCOCC2)oc2cc(/C=C/c3ccccc3)ccc12` reads 10000 nM. Turning to `Cc1cccn2c(=O)cc(N3CCOCC3)nc12`, the half-maximal inhibitory concentration (IC50) was determined as 11100 nM.

As for `Cc1cc(NCc2ccc(Cl)cc2)c2nc(N3CCOCC3)cc(=O)n2c1`, the IC50 is 1000 nM.

In the case of `Cc1cc(NCC2CCNCC2)c2nc(N3CCOCC3)cc(=O)n2c1`, the IC50 was determined as 1000 nM.

Turning to `Cc1cc(Cl)ccc1Oc1cccc2c(=O)cc(N3CCOCC3)[nH]c12`, the half-maximal inhibitory concentration (IC50) is 1000 nM.

For the compound `Cc1cc(Nc2ccc(O)cc2)c2nc(N3CCOCC3)cc(=O)n2c1`, the concentration for half-maximal inhibition (IC50) is 100 nM. With `Cc1cc(NCc2ccncc2)c2nc(N3CCOCC3)cc(=O)n2c1`, the IC50 was 500 nM. On the same count and under the same terms, the result for `O=c1cc(N2CCOCC2)oc2c(O)cccc12` reads 25000 nM; that for `Cc1cc(Nc2ccc(F)cc2C)c2nc(N3CCOCC3)cc(=O)n2c1`, 200 nM. On the same count and under the same terms, the result for `Cc1ccc(Oc2cc(C)cn3c(=O)cc(N4CCOCC4)nc23)cc1` reads 1000 nM; that for `Cc1cc(N[C@@H](C)c2ccccc2)c2nc(N3CCOCC3)cc(=O)n2c1`, 1000 nM. The same measure, in the same setting: the result for `O=c1cc(N2CCOCC2)nc2c(Cc3ccccc3)cccn12` reads 1500 nM. In the case of `O=c1cc(N2CCOCC2)[nH]c2c(Cc3ccccc3)cccc12`, the IC50 was 2000 nM.

In the case of `Cc1cccc(Oc2cccc3c(=O)cc(N4CCOCC4)[nH]c23)c1`, the half-inhibitory concentration (IC50) is 50 nM. On the same count and under the same terms, to `Cc1cc(Nc2ncccc2C)c2nc(N3CCOCC3)cc(=O)n2c1` belongs 10000 nM. In turn, `O=c1cc(N2CCOCC2)[nH]c2c(Cc3ccc(F)cc3)cccc12` showed a half-maximal inhibitory concentration (IC50) of 1000 nM.

`O=c1cc(N2CCOCC2)oc2c(-c3ccc(F)cc3)cccc12` gave an IC50 of 1000 nM. Still for that read-out and setting: the result for `Cc1cc(Nc2ccccc2O)c2nc(N3CCOCC3)cc(=O)n2c1` reads 200 nM; that for `Cc1ccccc1Oc1cccc2c(=O)cc(N3CCOCC3)[nH]c12`, 50 nM; that for `O=c1cc(N2CCOCC2)oc2c(-c3ccccc3C(F)(F)F)cccc12`, 200 nM. Still for that read-out and setting: to `Cc1cc(NCc2ccccc2Cl)c2nc(N3CCOCC3)cc(=O)n2c1` belongs 50 nM; to `CC(C)(C)c1ccc(COc2cccn3c(=O)cc(N4CCOCC4)nc23)cc1`, 7500 nM. The same measure, in the same setting: the result for `O=c1cc(N2CCOCC2)oc2c(Cc3ccccc3)cccc12` reads 100 nM; that for `O=c1cc(N2CCOCC2)nc2c(Oc3ccccc3)cccn12`, 1000 nM; that for `O=c1cc(N2CCOCC2)[nH]c2c(Oc3ccccc3F)cccc12`, 150 nM. `O=c1cc(N2CCOCC2)oc2cc(OCc3cccnc3)ccc12` registered an IC50 of 2000 nM. The same measure, in the same setting: to `Cc1cc(CNc2ccccc2)c2nc(N3CCOCC3)cc(=O)n2c1` belongs 50 nM.

With `Cc1cc(-c2ccccc2)c2nc(N3CCOCC3)cc(=O)n2c1`, the IC50 turned out to be 9800 nM. Compared with the last compound, the IC50 is about 200-fold higher. On the same count and under the same terms, to `Cc1ccc(Oc2cccc3c(=O)cc(N4CCOCC4)[nH]c23)cc1` belongs 500 nM; to `O=c1cc(N2CCOCC2)oc2c(Oc3ccccc3)cccc12`, 100 nM and 50 nM. Turning to `Cc1cc(Oc2cccc3c(=O)cc(N4CCOCC4)oc23)ccc1F`, the half-inhibitory concentration (IC50) was 100 to 150 nM. For the compound `Cc1cc(Nc2ccccc2C(F)(F)F)c2nc(N3CCOCC3)cc(=O)n2c1`, the half-inhibitory concentration (IC50) turned out to be 5000 nM. This counts as single-digit micromolar. The same measure, in the same setting: to `O=c1cc(N2CCOCC2)[nH]c2c(OCc3ccccc3)cccc12` belongs 100 nM. With `O=c1cc(N2CCOCC2)[nH]c2c(Oc3ccc(F)cc3)cccc12`, the IC50 was 50 nM. Still for that read-out and setting: the result for `COc1ccccc1CNc1cc(C)cn2c(=O)cc(N3CCOCC3)nc12` reads 50 nM; that for `Cc1ccccc1-c1cccc2c(=O)cc(N3CCOCC3)oc12`, 2000 nM; that for `Cc1cc(C2CCN(C)C2=O)c2nc(N3CCOCC3)cc(=O)n2c1` (configuration not stated), 20000 nM. As to `O=c1cc(N2CCOCC2)oc2c(OCc3cccnc3)cccc12`, the concentration for half-maximal inhibition (IC50) is 1000 nM. In the case of `Cc1cc(CCc2ccncc2)c2nc(N3CCOCC3)cc(=O)n2c1`, the concentration for half-maximal inhibition (IC50) came to 1000 nM. Same read-out and setting: the result for `Cc1cc(Oc2cccn3c(=O)cc(N4CCOCC4)nc23)ccc1F` reads 750 nM. On the same count and under the same terms, the result for `Cc1cc(Nc2ccc(O)cc2C)c2nc(N3CCOCC3)cc(=O)n2c1` reads 100 nM; that for `Cc1ccc(S(=O)(=O)Oc2cccc3c(=O)cc(N4CCOCC4)[nH]c23)cc1`, 1000 nM; that for `COc1cccc(COc2cccn3c(=O)cc(N4CCOCC4)nc23)c1`, 1000 nM.

With `Cc1cc(N[C@H](C)c2ccccc2)c2nc(N3CCOCC3)cc(=O)n2c1`, the IC50 was determined as 200 nM. On the same count and under the same terms, the result for `Cc1cc(-c2ccsc2)c2nc(N3CCOCC3)cc(=O)n2c1` reads 1000 nM. On the same count and under the same terms, to `O=C(O)c1cccc(Oc2cccc3c(=O)cc(N4CCOCC4)[nH]c23)c1` belongs 500 nM. Still for that read-out and setting: the result for `Cc1cc(NCc2ccccn2)c2nc(N3CCOCC3)cc(=O)n2c1` reads 500 nM; that for `Cc1c(Oc2ccccc2)ccc2c(=O)cc(N3CCOCC3)oc12`, 5000 nM and 10000 nM and 2000 nM; that for `Cc1cc(Nc2ccc(Cl)cc2)c2nc(N3CCOCC3)cc(=O)n2c1`, 1000 nM. For `O=c1cc(N2CCOCC2)nc2c(-c3ccccc3)cccn12`, the IC50 was 10500 nM. Same read-out and setting: to `O=c1cc(N2CCOCC2)[nH]c2c(Sc3ccccc3)cccc12` belongs 50 nM; to `O=c1cc(N2CCOCC2)[nH]c2c(Oc3ccccc3)cccc12`, 100 nM.

As to `Cc1ccc(Cc2cccc3c(=O)cc(N4CCOCC4)[nH]c23)cc1`, the half-inhibitory concentration (IC50) came to 2000 nM. Consider `O=c1cc(N2CCOCC2)oc2c(-c3ccccc3Cl)cccc12`, for which the IC50 was found to be 500 nM.

For the compound `Cc1c(OCc2ccccc2)ccc2c(=O)cc(N3CCOCC3)oc12`, the IC50 was 10000 nM. Against the preceding compound, the IC50 is about 20-fold higher. Still for that read-out and setting: the result for `Cc1cc(-c2ccccc2C(F)(F)F)c2nc(N3CCOCC3)cc(=O)n2c1` reads 2000 nM; that for `Cc1cc(F)ccc1Oc1cccc2c(=O)cc(N3CCOCC3)[nH]c12`, 20 nM; that for `Cc1cc(CNc2ccc(F)cc2C)c2nc(N3CCOCC3)cc(=O)n2c1`, 10 nM. On the same count and under the same terms, the result for `O=c1cc(N2CCOCC2)nc2c(OCc3ccccn3)cccn12` reads 10000 nM; that for `O=c1cc(N2CCOCC2)nc2c(OCc3cccc(Cl)c3)cccn12`, 500 nM.

Another experiment concerns the target PIK3CG (UniProt P48736). Nature of the experiment: PIK3-gamma Enzyme Assay.
On to `O=c1cc(N2CCOCC2)[nH]c2c(OCc3ccccc3)cccc12`, for which the IC50 worked out at 2000 nM. That is a single-digit micromolar value.
